In data set [1] the test system is human red blood cells. The settings on record: cited from earlier work. An excerpt: Table 2 Minimum inhibitory concentrations (MIC) and minimum fungicidal concentrations (MFC) determined for peptides and reference antifungals [g/L]. The highest antimicrobial activity is marked in green, medium values in yellow, while the weakest antifungal activity is marked in red. Minimum hemolytic concentration (MHC5%—causing hemolysis of 5% of human red blood cells) determined in previous stu | column: MHC5%

In data set [2] the test system is C. albicans biofilms cultured on polystyrene. The format is cell-based, Candida albicans. Particulars: biofilms cultured on polystyrene. Here is the method: (§1) Fungal strains were purchased from the Polish Collection of Microorganisms (Polish Academy of Science, Wroclaw, Poland). Four reference strains of Candida (C. albicans ATCC 10231, C. glabrata ATCC 15126, C. lypolytica PCM 2680, and C. tropicalis PCM 2680) were cultured on the Dextrose Sabouraud Agar (DSA, Neogen, Lansing, MI, USA). Before performing the assays, the fungi were cultured in a Sabouraud dextrose broth (DSB, Neogen, Lansing, MI, USA) for 48 h under aerobic conditions at 25 °C. Afterward, the fungal cultures were centrifuged (2500 rpm, 10 min) and resuspended in the appropriate liquid medium for appropriate inoculums for the performed assays.
Fungal suspensions in DSB were added to the wells at initial inoculums of ca. 5 × 10^6 CFU/mL and incubated under aerobic conditions, at 25 °C for 24 h, 48 h, and 72 h, in order to grow candidal biofilms of different maturity. After the appropriate time of incubation, the wells were washed with phosphoric buffered (PBS), and fresh RPMI medium supplemented with antifungals and the lipopeptides at graded concentrations (range […]) were added. The fungal biofilms were exposed to the compounds for 24 h (aerobic conditions, 25 °C). After the exposure to antifungals, the content of the wells was aspirated and a 0.01% solution of resazurin (Sigma-Aldrich, St. Louis, MO, USA) in DSB was added. Resazurin (blue) was applied as a cell viability reagent, which upon contact with living cells is reduced to a pink resorufin. The samples with the dye were incubated for 1 h at 25 °C and the absorbance was measured at 570 and 600 nm with a microplate reader (Thermo Fisher Scientific, Waltham, MA, USA). The assays were performed four times on four different days. The results are presented as the means of the measured percentage of metabolic activity (MA) of fungi in the well when compared with positive (sample with Candida in DSB) and negative controls (pure DSB), which were taken as 100% and 0%, respectively. The MA of Candida in the samples was measured according to the following formula:MA(%) = (ΔAbs of sample − ΔAbs of negative control)/(ΔAbs of positive control − ΔAbs of negative control);(1) ΔAbs = absorbance at 570 nm − absorbance at 600 nm.(2)
The MBEC was taken as the lowest concentration of antifungal which allowed us to reduce the metabolism of fungal cells to 10% (or less) of the positive control.

For data set [3], the system named is Candida strains (C. albicans, C. glabrata, C. lipolytica, C. tropicalis). The format is cell-based. The settings on record: 48 h. Here is the method:
as §1
The strains cultured described in Section 4.1 were suspended in the Roswell Park Memorial Institute 1640 Medium (RPMI, Sigma-Aldrich, St. Louis, MO, USA) at an initial inoculum of ca. 5 × 10^3 CFU/mL. The stock solutions (1024 mg/L) of tested compounds in RPMI were added to 96-well polystyrene plates and diluted serially to well no. 10, leaving wells 11 and 12 for fertility and sterility controls. The tested Candida strains were exposed to graded concentrations (range 0.5–256 mg/L) of the lipopeptides and conventional antifungals (benzalkonium chloride, fluconazole, and nystatin) for 48 h under aerobic conditions at 25 °C. After incubation, the results were read visually.
Then the results were read visually. Both MIC as well as the MFC assays were performed threetimes on three different days.

Like-named read-outs stand apart in the source and are kept apart here. Marks after values point to notes of the source that are not given here. Where a SMILES comes first, the peptide text is derived from it. Where no end group is shown, it is not given here. The star is where a group is joined. Benzoyl(4-Ph) = O=C(c1ccc(-c2ccccc2)cc1)*; Butanoyl(4-Ph) = O=C(CCCc1ccccc1)*; X2 = O=C(C#Cc1ccccc1)* A value given as a limit tells only on which side of the number the result lay.

As for `CC[C@H](C)[C@H](NC(=O)[C@H](CCCNC(=N)N)NC(=O)[C@H](CCC(N)=O)NC(=O)[C@@H](NC(=O)[C@@H](NC(=O)[C@H](CCCNC(=N)N)NC(=O)[C@H](CCCCN)NC(=O)CCCc1ccccc1)[C@@H](C)CC)C(C)C)C(=O)N[C@@H](CCCCN)C(=O)N[C@@H](CC(=O)O)C(=O)N[C@@H](Cc1ccccc1)C(=O)N[C@@H](CC(C)C)C(=O)N[C@@H](CCCNC(=N)N)C(N)=O` [XXIII, 4-Phenylbutanoic acid-KR12-NH2] ({Butanoyl(4-Ph)}-KRIVQRIKDFLR-NH2), the “MHC5% (minimum hemolytic concentration causing hemolysis of 5% of human red blood cells)” value (“MHC5%” below) in data set [1] is reported as 128 g/L.

With `CC[C@H](C)[C@H](NC(=O)[C@H](CCCNC(=N)N)NC(=O)[C@H](CCC(N)=O)NC(=O)[C@@H](NC(=O)[C@@H](NC(=O)[C@H](CCCNC(=N)N)NC(=O)[C@H](CCCCN)NC(=O)C#Cc1ccccc1)[C@@H](C)CC)C(C)C)C(=O)N[C@@H](CCCCN)C(=O)N[C@@H](CC(=O)O)C(=O)N[C@@H](Cc1ccccc1)C(=O)N[C@@H](CC(C)C)C(=O)N[C@@H](CCCNC(=N)N)C(N)=O` [XXIV, Phenylpropiolic acid-KR12-NH2] (X2-KRIVQRIKDFLR-NH2), in data set [1], the “MHC5%” value is listed as 256 g/L.

Regarding `CC[C@H](C)[C@H](NC(=O)[C@H](CCCNC(=N)N)NC(=O)[C@H](CCC(N)=O)NC(=O)[C@@H](NC(=O)[C@@H](NC(=O)[C@H](CCCNC(=N)N)NC(=O)[C@H](CCCCN)NC(=O)c1ccc(-c2ccccc2)cc1)[C@@H](C)CC)C(C)C)C(=O)N[C@@H](CCCCN)C(=O)N[C@@H](CC(=O)O)C(=O)N[C@@H](Cc1ccccc1)C(=O)N[C@@H](CC(C)C)C(=O)N[C@@H](CCCNC(=N)N)C(N)=O` [XXV, 4-Phenylbenzoic acid-KR12-NH2] ({Benzoyl(4-Ph)}-KRIVQRIKDFLR-NH2), in data set [2], the “MBEC 24 h” value was >512 * mg/L, the “MBEC 48 h” value is >512 * mg/L and the “MBEC 72 h” value is given as >512 * mg/L. In data set [1], the “MHC5%” value is given as 32 g/L. Besides, in data set [3], the “MIC, range over the tested strains” value was in the range of 4 to 16 µg/mL.

Ac-KRIVQRIKDFLR-NH2 [I, Ac-KR12-NH2]: the “MHC5%” value in data set [1] (human red blood cells, determined in previous studies, ref [13],[14]) is recorded as >256 * g/L.

With KRIVQRIKDFLR-NH2 [X, KR12-NH2], in data set [2], the “MBEC 24 h” value is >512 * mg/L, the “MBEC 48 h” value is given as >512 * mg/L and the “MBEC 72 h” value is >512 * mg/L. Besides, in data set [1], the “MHC5%” value is given as >256 * g/L.

(Values after publication PMC11990879, “Anticandidal Activity of Lipopeptides Containing an LL-37-Derived Peptide Fragment KR12” (Molecules, 2025).)
